Experimental data: patent US8138168B1 (Takeda Pharmaceutical Company Limited, priority 2007, dated 2012)

target: T1, Recombinant human renin (Homo sapiens, UniProt P00797); experiment: In vitro enzymatic activity assay of renin inhibitors (fluorogenic peptide substrate); assay type: biochemical; conditions: read-out: IC50 of Exemplified Compounds Against Renin
T1 construct: isolate the active form (residues 67-406); made in house; host or cells: FreeStyle 293-F cells (transient expression of pcDNA3.1(+)/hREN)
T1 sequence (P00797 67-406): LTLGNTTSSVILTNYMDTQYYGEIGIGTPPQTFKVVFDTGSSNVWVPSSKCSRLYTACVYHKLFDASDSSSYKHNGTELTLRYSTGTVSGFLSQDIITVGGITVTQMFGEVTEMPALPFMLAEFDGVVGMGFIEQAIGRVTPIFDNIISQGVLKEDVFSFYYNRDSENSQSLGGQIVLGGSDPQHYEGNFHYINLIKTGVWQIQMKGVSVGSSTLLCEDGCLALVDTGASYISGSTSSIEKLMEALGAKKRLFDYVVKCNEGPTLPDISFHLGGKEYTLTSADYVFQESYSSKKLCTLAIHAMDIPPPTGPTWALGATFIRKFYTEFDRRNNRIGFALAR
Method: Test compounds in varying concentrations may be reacted with recombinant human renin in the presence of substrate, e.g., QXL520-γ-Abu-[…](HiLyteFluo488)-Arg-OH (Anaspec, San Jose, Calif.). […] Inhibition constants (IC50) may be calculated by non-linear curve fitting of the compound concentrations and fluorescence intensities to the standard IC50 equation.
Solutions of test compounds in varying concentrations mM final concentration) are prepared in dimethyl sulfoxide (DMSO) and then diluted into assay buffer comprising 50 mM Hepes, 1 mM EDTA, 1 mM DTT, 0.1 mg/mL BSA, 0.01% Brij35, pH 7.4. Alternatively, the assay can be performed with a high BSA concentration, wherein the buffer contains an additional 2% BSA.
Recombinant human renin (3 nM final concentration) is added to the dilutions and pre-incubated with the compounds for 10 minutes at 37° C. […] After pre-incubation, the reaction is initiated with of substrate QXL520-γ-Abu-[…](HiLyteFluo488)-Arg-OH (Anaspec, San Jose, Calif.). The final DMSO in the assay is 5%. The total volume of the reaction mixture is 20 μL, which can be placed on Greiner 384-well small volume plates.
The fluorescence intensity is determined upon the addition of substrate and determined again after incubation at 37° C. for one hour. The fluorescence intensity of a blank (no inhibition) using vehicle alone is also determined. Renin activity is linearly proportional to the change in fluorescence observed (final-initial).

Structure (SMILES) | IC50 [µM]
COCCCn1c([C@@H]2CCCN(C(=O)[C@@H]3CN(S(=O)(=O)c4cccc(OC(F)F)c4)C[C@H]3N)C2)nc2ccccc21 [Compound 419, ((3R,4S)-4-amino-1-(3-(difluoromethoxy)phenylsulfonyl)pyrrolidin-3-yl)((R)-3-(1-(3-methoxypropyl)-1H-benzo[d]imidazol-2-yl)piperidin-1-yl)methanone] | > 1
CC(C)(C)[C@H](N)C(=O)N1CCCC(c2nc3ccccc3[nH]2)C1 (stereo partly drawn) [Compound 56, (2S)-1-(3-(1H-benzo[d]imidazol-2-yl)piperidin-1-yl)-2-amino-3,3-dimethylbutan-1-one] | > 1
COCCCn1c([C@@H]2CCCN(C(=O)C[C@H](N)Cc3ccc(-c4ccc(OC)nc4OC)cc3)C2)nc2ccccc21 [Compound 132, (R)-3-amino-4-(4-(2,6-dimethoxypyridin-3-yl)phenyl)-1-((R)-3-(1-(3-methoxypropyl)-1H-benzo[d]imidazol-2-yl)piperidin-1-yl)butan-1-one] | < 0.1
COCCCn1c([C@@H]2CCCN(C(=O)C[C@H](N)CNC(=O)C3CCCCC3)C2)nc2ccccc21 [Compound 326, N-((S)-2-amino-4-((R)-3-(1-(3-methoxypropyl)-1H-benzo[d]imidazol-2-yl)piperidin-1-yl)-4-oxobutyl)cyclohexanecarboxamide] | > 1
N[C@H](Cc1ccccc1)C(=O)N1CCCC(c2nc3ccccc3[nH]2)C1 (stereo partly drawn) [Compound 58, (2R)-1-(3-(1H-benzo[d]imidazol-2-yl)piperidin-1-yl)-2-amino-3-phenylpropan-1-one] | > 1
N[C@@H](CC(=O)N1CCCC(c2nc3ccccc3[nH]2)C1)Cc1ccccc1Cl (stereo partly drawn) [Compound 27, (3R)-1-(3-(1H-benzo[d]imidazol-2-yl)piperidin-1-yl)-3-amino-4-(2-chlorophenyl)butan-1-one] | > 1
COCCCn1c([C@@H]2CCCN(C(=O)C[C@H](N)Cc3ccc4ccccc4c3)C2)nc2c1CCCC2 [Compound 241, (R)-3-amino-1((R)-3-(1-(3-methoxypropyl)-4,5,6,7-tetrahydro-1H-benzo[d]imidazol-2-yl)piperidin-1-yl)-4-(naphthalen-2-yl)butan-1-one] | 0.1 to 1
COCCCn1c([C@@H]2CCCN(C(=O)C[C@H](N)CNC(=O)Nc3ccc(Cl)c(Cl)c3)C2)nc2ccccc21 [Compound 255, 1-((S)-2-amino-4-((R)-3-(1-(3-methoxypropyl)-1H-benzo[d]imidazol-2-yl)piperidin-1-yl)-4-oxobutyl)-3-(3,4-dichlorophenyl)urea] | < 0.1
COCCCn1c([C@@H]2CCCN(C(=O)C[C@H](N)CNC(=O)c3cc4ccccc4o3)C2)nc2ccccc21 [Compound 263, N-((S)-2-amino-4-((R)-3-(1-(3-methoxypropyl)-1H-benzo[d]imidazol-2-yl)piperidin-1-yl)-4-oxobutyl)benzofuran-2-carboxamide] | 0.1 to 1
COCCCn1c([C@@H]2CCCN(C(=O)C[C@H](N)Cc3ccc(-c4cnc(C)n4C)cc3)C2)nc2ccccc21 [Compound 204, (R)-3-amino-4-(4-(1,2-dimethyl-1H-imidazol-5-yl)phenyl)-1-((R)-3-(1-(3-methoxypropyl)-1H-benzo[d]imidazol-2-yl)piperidin-1-yl)butan-1-one] | 0.1 to 1
COCCCn1c([C@@H]2CCCN(C(=O)[C@@H]3CN(C(=O)c4ccc(C(=O)OC)cc4)C[C@H]3N)C2)nc2ccccc21 [Compound 422, methyl 4-((3S,4R)-3-amino-4-((R)-3-(1-(3-methoxypropyl)-1H-benzo[d]imidazol-2-yl)piperidine-1-carbonyl)pyrrolidine-1-carbonyl)benzoate] | > 1
N[C@@H](CC(=O)N1CCCC(c2nc3ccccc3[nH]2)C1)c1cccc(Cl)c1Cl (stereo partly drawn) [Compound 37, (3S)-1-(3-(1H-benzo[d]imidazol-2-yl)piperidin-1-yl)-3-amino-3-(2,3-dichlorophenyl)propan-1-one] | > 1
COCCCn1c([C@@H]2CCCN(C(=O)C[C@@H](N)COc3cccc(OC)c3)C2)nc2ccccc21 [Compound 433, (R)-3-amino-4-(3-methoxyphenoxy)-1-((R)-3-(1-(3-methoxypropyl)-1H-benzo[d]imidazol-2-yl)piperidin-1-yl)butan-l-one] | > 1
COCCCn1c([C@@H]2CCCN(C(=O)[C@@H]3CN(C(=O)c4ccccc4OC)C[C@H]3N)C2)nc2ccccc21 [Compound 387, ((3R,4S)-4-amino-1-(2-methoxybenzoyl)pyrrolidin-3-yl)((R)-3-(1-(3-methoxypropyl)-1H-benzo[d]imidazol-2-yl)piperidin-1-yl)methanone] | > 1
COCCCn1c([C@@H]2CCCN(C(=O)[C@@H]3CN(S(=O)(=O)c4cc(C(F)(F)F)ccc4Cl)C[C@H]3N)C2)nc2ccccc21 [Compound 356, ((3R,4S)-4-amino-1-(2-chloro-5-(trifluoromethyl)phenylsulfonyl)pyrrolidin-3-yl)((R)-3-(1-(3-methoxypropyl)-1H-benzo[d]imidazol-2-yl)piperidin-1-yl)methanone] | 0.1 to 1
COCCCn1c([C@@H]2CCCN(C(=O)C[C@H](N)CNC(=O)c3ccc(-c4cc(Cl)ccc4Cl)o3)C2)nc2ccccc21 [Compound 276, N-((S)-2-amino-4-((R)-3-(1-(3-methoxypropyl)-1H-benzo[d]imidazol-2-yl)piperidin-1-yl)-4-oxobutyl)-5-(2,5-dichlorophenyl)furan-2-carboxamide] | 0.1 to 1
NC(=O)CCn1c([C@@H]2CCCN(C(=O)C[C@H](N)Cc3ccc(-c4ccccc4)cc3)C2)nc2ccccc21 [Compound 485, 3-(2-((R)-1-((R)-3-amino-4-(biphenyl-4-yl)butanoyl)piperidin-3-yl)-1H-benzo[d]imidazol-1-yl)propanamide] | > 1
COCCCn1c(C2CCCN(C(=O)CC(N)Cc3ccc4ccccc4c3)C2)nc2ccc(=O)[nH]c21 [Compound 101, (R)-2-(1-(3-amino-4-(naphthalen-2-yl)butanoyl)piperidin-3-yl)-3-(3-methoxypropyl)-3H-imidazo[4,5-b]pyridin-5(4H)-one] | > 1
COCCCn1c([C@@H]2CCCN(C(=O)C[C@H](N)Cc3ccc(N4CCOCC4=O)cc3)C2)nc2ccccc21 [Compound 213] | 0.1 to 1
COCCCc1nc2ccccc2n1[C@@H]1CCCN(C(=O)C[C@H](N)Cc2ccc3ccccc3c2)C1 [Compound 243, (R)-3-amino-1-((R)-3-(2-(3-methoxypropyl)-1H-benzo[d]imidazol-1-yl)piperidin-1-yl)-4-(naphthalen-2-yl)butan-1-one] | > 1
NC(=O)CCn1c([C@@H]2CCCN(C(=O)C[C@H](N)Cc3ccc(-c4ccc(N)nc4)cc3)C2)nc2ccccc21 [Compound 480, 3-(2-((R)-1-((R)-3-amino-4-(4-(6-aminopyridin-3-yl)phenyl)butanoyl)piperidin-3-yl)-1H-benzo[d]imidazol-1-yl)propanamide] | 0.1 to 1
COCCCn1c([C@@H]2CCCN(C(=O)C[C@H](N)c3cccc(Br)c3)C2)nc2ccccc21 [Compound 80, (S)-3-amino-3-(3-bromophenyl)-1((R)-3-(1-(3-methoxypropyl)-1H-benzo[d]imidazol-2-yl)piperidin-1-yl)propan-1-one] | 0.1 to 1
COCCCn1c([C@@H]2CCCN(C(=O)C[C@H](N)Cc3ccc(-c4ccn[nH]4)cc3)C2)nc2ccccc21 [Compound 141, (R)-4-(4-(1H-pyrazol-5-yl)phenyl)-3-amino-1-((R)-3-(1-(3-methoxypropyl)-1H-benzo[d]imidazol-2-yl)piperidin-1-yl)butan-1-one] | 0.1 to 1
